Laboratory results reported in US9320278B2, “Methods of controlling insects” (Syngenta Participations AG, priority 2012, dated 2016).

Tested on: Anthonomus grandis (Cotton Boll Weevil)
Assay: Anthonomus grandis (Cotton Boll Weevil) test on treated cotton plants, mortality
Format: in vivo
Procedure: Anthonomus grandis (Cotton Boll Weevil)
Cotton plants are treated (100 mL spray volume) and 10 adult weevils are added to each plant (2 replicates per concentration). 5 days after infestation the mortality is assessed.
Compounds are tested according to the above method.

[1] = application rate 0.2 ppm, treated cotton plants, 10 adult weevils per plant, mortality 5 days after infestation
[2] = application rate 12.5 ppm, treated cotton plants, 10 adult weevils per plant, mortality 5 days after infestation
[3] = application rate 50 ppm, treated cotton plants, 10 adult weevils per plant, mortality 5 days after infestation
[4] = application rate 0.8 ppm, treated cotton plants, 10 adult weevils per plant, mortality 5 days after infestation
[5] = application rate 3 ppm, treated cotton plants, 10 adult weevils per plant, mortality 5 days after infestation
[6] = comparative example, application rate 0.8 ppm, Anthonomus grandis (Cotton boll weevil)
[7] = comparative example, application rate 3 ppm, Anthonomus grandis (Cotton boll weevil)
[8] = comparative example, application rate 12.5 ppm, Anthonomus grandis (Cotton boll weevil)
[9] = application rate 0.01 ppm, treated cotton plants, 10 adult weevils per plant, mortality 5 days after infestation
[10] = application rate 0.05 ppm, treated cotton plants, 10 adult weevils per plant, mortality 5 days after infestation

Work on `Cc1cc(C2=NOC(c3cc(Cl)cc(Cl)c3)(C(F)(F)F)C2)ccc1C(=O)NC1CON(CC(F)(F)F)C1=O` (mixture of isomers) [Compound A21] yielded a Control/% [1] of 70%, a Control/% [2] of 100% and a Control/% [3] of 100%.

With `CCN1OC[C@@H](NC(=O)c2ccc(C3=NO[C@@](c4cc(Cl)c(F)c(Cl)c4)(C(F)(F)F)C3)cc2C)C1=O` [Compound A20] the Control/% [1] was 15%, the Control/% [4] was 60% and the Control/% [5] was 100%. For the same compound, the Control/% [2] was 100% and the Control/% [3] was 100%.

`CCN1OCC(NC(=O)c2ccc(C3=NOC(c4cc(Cl)cc(Cl)c4)(C(F)(F)F)C3)cc2C)C1=O` (mixture of isomers) [Compound A9] was tested, and the Control/% [1] was 25%, the Control/% [4] was 15% and the Control/% [5] was 75%. For the same compound, the Control/% [2] was 100% and the Control/% [3] was 100%.

`Cc1cc(C2=NOC(c3cc(Cl)cc(Cl)c3)(C(F)(F)F)C2)ccc1C(=O)NC1CON(C)C1=O` (mixture of isomers) [Compound A2] gave a Control/% [1] of 45%, a Control/% [4] of 80% and a Control/% [5] of 100%. The Control/% [2] was 100% and the Control/% [3] was 100%.

`Cc1cc(C2=NOC(c3cc(Cl)cc(Cl)c3)(C(F)(F)F)C2)ccc1C(=O)N[C@@H]1CON(CC(F)(F)F)C1=O` (stereo partly drawn) [Compound of the invention] gave a Control/% [6] of 100%, a Control/% [7] of 100% and a Control/% [8] of 100%.

For `Cc1cc(C2=NOC(c3cc(Cl)cc(Cl)c3)(C(F)(F)F)C2)ccc1C(=O)NC1CON(CC(F)F)C1=O` (mixture of isomers) [Compound A6], the Control/% [9] was 35%, the Control/% [10] was 50% and the Control/% [1] was 95%. It also gave a Control/% [4] of 100% and a Control/% [5] of 100%.

`Cc1cc(C2=NO[C@@](c3cc(Cl)cc(Cl)c3)(C(F)(F)F)C2)ccc1C(=O)N[C@@H]1CON(CC(F)(F)F)C1=O` [Compound A16] gave a Control/% [9] of 0%, a Control/% [10] of 55% and a Control/% [1] of 100%. It also gave a Control/% [4] of 100% and a Control/% [5] of 100%.

Compound `CCN1OC[C@@H](NC(=O)c2ccc(C3=NO[C@@](c4cc(Cl)cc(Cl)c4)(C(F)(F)F)C3)cc2C)C1=O` [Compound A17] has a Control/% [1] of 20%, a Control/% [4] of 50% and a Control/% [5] of 100%. For the same compound, the Control/% [2] was 100% and the Control/% [3] was 100%.

With `Cc1cc(C2=NOC(c3cc(Cl)cc(Cl)c3)(C(F)(F)F)C2)ccc1C(=O)NC1CON(CC(F)(F)F)C1=O` (mixture of isomers) [Compound A8] the Control/% [9] was 20%, the Control/% [10] was 35% and the Control/% [1] was 70%. It also gave a Control/% [4] of 100% and a Control/% [5] of 100%.

Work on `CCN1OCC(NC(=O)c2ccc(C3=NOC(c4cc(Cl)c(F)c(Cl)c4)(C(F)(F)F)C3)cc2C)C1=O` (mixture of isomers) [Compound A5] yielded a Control/% [1] of 40%, a Control/% [4] of 40% and a Control/% [5] of 95%. The Control/% [2] was 100% and the Control/% [3] was 100%.

Work on `Cc1cc(C2=NOC(c3cc(Cl)c(Cl)c(Cl)c3)(C(F)(F)F)C2)ccc1C(=O)NC1CON(CC(F)(F)F)C1=O` (mixture of isomers) [Compound A1] yielded a Control/% [1] of 45%, a Control/% [4] of 90% and a Control/% [5] of 100%. For the same compound, the Control/% [2] was 100% and the Control/% [3] was 95%.

Work on `Cc1cc(C2=NOC(c3cc(Cl)cc(Cl)c3)(C(F)(F)F)C2)ccc1C(=O)N[C@@H]1CON(Cc2ccccc2)C1=O` (stereo partly drawn) [Reference compound, reference compound] yielded a Control/% [6] of 10%, a Control/% [7] of 30% and a Control/% [8] of 30%.

For `Cc1cc(C2=NO[C@@](c3cc(Cl)cc(Cl)c3)(C(F)(F)F)C2)ccc1C(=O)N[C@H]1CON(CC(F)(F)F)C1=O` [Compound A3], the Control/% [1] was 60%, the Control/% [4] was 60% and the Control/% [5] was 100%. The Control/% [2] was 100% and the Control/% [3] was 100%.

For `CCN1OC[C@@H](NC(=O)c2ccc(C3=NO[C@@](c4cc(Cl)cc(C(F)(F)F)c4)(C(F)(F)F)C3)c3ccccc23)C1=O` [Compound A18], the Control/% [1] was 0%, the Control/% [4] was 40% and the Control/% [5] was 30%. For the same compound, the Control/% [2] was 35% and the Control/% [3] was 100%.

In the case of `CCN1OC[C@@H](NC(=O)c2ccc(C3=NO[C@@](c4cc(Cl)c(F)c(Cl)c4)(C(F)(F)F)C3)cc2Cl)C1=O` [Compound A19], the Control/% [1] was 60%, the Control/% [4] was 30% and the Control/% [5] was 85%. The Control/% [2] was 95% and the Control/% [3] was 100%.
